The record followed here is patent US20240208959A1, “THIAZOLE/ISOTHIAZOLE HSD17B13 INHIBITORS AND USES THEREOF” (INIPHARM, INC., priority 2021, published 2024).

The assay has as its target T1, HSD17B13 enzyme (Homo sapiens, UniProt Q7Z5P4).
T1 construct: His; made in house; host or cells: E. coli
T1 sequence (Q7Z5P4 20-300): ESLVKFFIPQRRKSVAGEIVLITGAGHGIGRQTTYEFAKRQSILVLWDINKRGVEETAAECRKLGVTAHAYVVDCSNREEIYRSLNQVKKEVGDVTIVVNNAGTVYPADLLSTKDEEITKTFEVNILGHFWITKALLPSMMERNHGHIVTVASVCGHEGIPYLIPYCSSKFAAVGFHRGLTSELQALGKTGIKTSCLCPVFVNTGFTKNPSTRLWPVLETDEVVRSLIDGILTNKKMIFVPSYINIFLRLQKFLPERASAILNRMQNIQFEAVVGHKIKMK
The experiment in a line: LC/MS estrone detection assay: conversion of estradiol to estrone by HSD17B13. The assay is classed as biochemical. Particulars: 4 μM Estradiol, 6mM NAD, 30 nM HSD17B13 enzyme (E. coli expressed His-tagged), 2 hours at 26.5° C. The protocol: Example A: Estrone Detection Assay for Evaluation of HSD17β13 Activity and Identification of Inhibitors
The liquid chromatography/mass spectrometry (LC/MS) estrone detection assay monitors the conversion of estradiol to estrone by HSD17B13. This assay was undertaken in a 96wp format (Eppendorf deep well Plate 96/500) in an 80 μl reaction volume containing: 4 μM of Estradiol (E2: Cayman: #10006315), 6mM NAD (Sigma: #N0623) and 30 nM HSD17B13 enzyme (in-house: E. coli expressed His-tagged, purified, soluble protein) in a reaction containing […] potassium phosphate buffer pH 7.4, with 0.5% vehicle (DMSO). Reactions were incubated for 2 hours at 26.5° C., and estradiol (E2) conversion to estrone (E1) was quantitated by LC-MS/MS based analyte detection for both E2 and E1 using LCMS grade reagents.
Reactions were terminated by the addition of two volumes of acetonitrile (MeCN: LCMS grade: CAS #75/05/8) containing deuterated (D4)-E1 used as internal standard (Clear Synth: #CS-T-54273: 500 ng/mL final concentration). Samples were applied to pre-prepared Bond Elut-C18 extraction cartridges (3 mL: Agilent: #12102028), washed and eluted in MeCN. Eluates were dried under nitrogen and re-suspended in 60% methanol (LCMS grade methanol: CAS #67/56/1) before submission for analysis. Aqueous linearity for E2 and E1 were included for quantification.
Analysis of samples was undertaken on a XBridge BEH C18 column (Waters: #186003033) using 0.1% Diethyl Amine in MeCN (mobile phase A: DEA CAS #109-89-7) and 0.1% Diethyl Amine in milli-Q water (mobile phase B) in a 3 min gradient allowing 25% B. Analytes were detected in negative mode using MRM analysis, with E2 having a RT of 1.85 min and E1 having a RT of 2 min Activity of the enzyme, in the absence of NAD′, was used to evaluate specificity of conversion. Enzyme activity in the presence of test samples was expressed as a percentage of the uninhibited enzyme activity, and plotted versus inhibitor concentration. Non-linear regression was performed using a four-parameter logistic model and GraphPad Prism software (GraphPad Software, La Jolla, CA). All assessments were undertaken in duplicate evaluations and pooled during extraction process and subsequently injected as duplicates for LC-MS/MS analysis.
Usually IC50 stands for the concentration that inhibits the measured activity by half. Lower therefore signals greater potency in that assay. For the molecule `O=C(Nc1scnc1C(=O)NC(CO)c1ccccc1)c1ccc(O)c(Cl)c1` (stereo in doubt) [Example 6, (R)-5-(3-chloro-4-hydroxybenzamido)-N-(2-hydroxy-1-phenylethyl)thiazole-4-carboxamide], the IC50 was at most 100 nM.
In the case of `COC(=O)C(NC(=O)c1scnc1NC(=O)c1ccc(O)c(Cl)c1)c1ccccc1` (stereo in doubt) [Example 7, methyl (R)-2-(4-(3-chloro-4-hydroxybenzamido)thiazole-5-carboxamido)-2-phenylacetate] it was 100 to 500 nM; in that of `O=C(Nc1ncsc1C(=O)NC(C(=O)O)c1ccccc1)c1ccc(O)c(Cl)c1` (stereo in doubt) [Example 8, (R)-2-(4-(3-chloro-4-hydroxybenzamido)thiazole-5-carboxamido)-2-phenylacetic Acid], 1000 to 10000 nM.
For the molecule `O=C(Nc1ncsc1C(=O)NCCc1ccccc1C(F)(F)F)c1ccc(O)c(C(F)(F)F)n1` [Example 1, 4-(5-hydroxy-6-(trifluoromethyl)picolinamido)-N-(2-(trifluoromethyl)phenethyl)thiazole-5-carboxamide], the IC50 lay in the range of 100 to 500 nM.
`O=C(Nc1ncsc1C(=O)NCCc1ccccc1F)c1ccc(O)c(C(F)(F)F)n1` [Example 2, N-(2-fluorophenethyl)-4-(5-hydroxy-6-(trifluoromethyl)picolinamido)thiazole-5-carboxamide]: the IC50 was in the range of 100 to 500 nM.
Regarding `CC(C)(C)CCNC(=O)c1scnc1NC(=O)c1ccc(O)c(C(F)(F)F)n1` [Example 3, N-(3,3-dimethylbutyl)-4-(5-hydroxy-6-(trifluoromethyl)picolinamido)thiazole-5-carboxamide], the IC50 lay within 500 to 1000 nM.
`O=C(Nc1ncsc1C(=O)NCc1ccccc1C(F)(F)F)c1cc(F)c(O)c(F)c1` [Example 4, 4-(3,5-difluoro-4-hydroxybenzamido)-N-(2-(trifluoromethyl)benzyl)thiazole-5-carboxamide] yielded an IC50 of at most 100 nM.
In the case of `Cc1nsc(NC(=O)c2ccc(O)c(Cl)c2)c1C(=O)NCCC(C)(C)C` [Example 5, 5-(3-chloro-4-hydroxybenzamido)-N-(3,3-dimethylbutyl)-3-methylisothiazole-4-carboxamide] it was at most 100 nM; in that of `O=C(Nc1ncsc1C(=O)NCc1ccccc1C(F)(F)F)c1cc(F)c(O)c(Cl)c1` [Example 9, 4-(3-chloro-5-fluoro-4-hydroxybenzamido)-N-{[2-(trifluoromethyl)phenyl]methyl}-1,3-thiazole-5-carboxamide], at most 100 nM; in that of `O=C(Nc1ncsc1C(=O)NCc1ccccc1F)c1cc(F)c(O)c(Cl)c1` [Example 10, 4-(3-chloro-5-fluoro-4-hydroxybenzamido)-N-(2-fluorobenzyl)thiazole-5-carboxamide], 100 to 500 nM.
In the case of `O=C(Nc1ncsc1C(=O)NCc1ccccc1OC(F)(F)F)c1cc(F)c(O)c(Cl)c1` [Example 11, 4-(3-chloro-5-fluoro-4-hydroxybenzamido)-N-(2-(trifluoromethoxy)benzyl)thiazole-5-carboxamide] it was 100 to 500 nM.
In turn, `COc1ccccc1CCNC(=O)c1nc(C)sc1NC(=O)c1ccc(O)c(Cl)c1` [Example 12, 5-(3-chloro-4-hydroxybenzamido)-N-(2-methoxyphenethyl)-2-methylthiazole-4-carboxamide] returned a concentration for half-maximal inhibition (IC50) of at most 100 nM.
Molecule `O=C(Nc1scnc1C(=O)NCc1ccccc1OC(F)(F)F)c1cc(Cl)c(=O)[nH]n1` [Example 13, 5-(5-chloro-6-oxo-1,6-dihydropyridazine-3-carboxamido)-N-(2-(trifluoromethoxy)benzyl)thiazole-4-carboxamide] gave an IC50 of 500 to 1000 nM.
The molecule `CC(C)c1cc(C(=O)Nc2scnc2C(=O)NCc2ccccc2OC(F)(F)F)n[nH]c1=O` [Example 14, 5-(5-isopropyl-6-oxo-1,6-dihydropyridazine-3-carboxamido)-N-(2-(trifluoromethoxy)benzyl)thiazole-4-carboxamide] registered an IC50 of over 10000 nM.
With `O=C(Nc1scnc1C(=O)NCc1ccccc1OC(F)(F)F)c1ccc(=O)[nH]n1` [Example 15, 5-(6-oxo-1,6-dihydropyridazine-3-carboxamido)-N-(2-(trifluoromethoxy)benzyl)thiazole-4-carboxamide], the IC50 is over 10000 nM.
In the case of `O=C(Nc1scnc1C(=O)NCc1ccccc1OC(F)(F)F)c1c[nH]c(=O)cn1` [Example 16, 5-(5-oxo-4,5-dihydropyrazine-2-carboxamido)-N-(2-(trifluoromethoxy)benzyl)thiazole-4-carboxamide], the IC50 is over 10000 nM.
